Measurements reported in ChEMBL document CHEMBL3994622, “Design and synthesis of new RAF kinase-inhibiting antiproliferative quinoline derivatives. Part 2: Diarylurea derivatives” (Eur J Med Chem, 2017).

How the values were obtained:
Assay type in all cases: functional
HL-60(TB) = test: Growth inhibition of human HL-60(TB) cells assessed as cell growth at 10 uM incubated for 48 hrs by sulforhodamine B assay relative to control; details: HL-60, 48 h, read-out: Activity
MOLT-4 = test: Growth inhibition of human MOLT4 cells assessed as cell growth at 10 uM incubated for 48 hrs by sulforhodamine B assay relative to control; details: MOLT-4, 48 h, read-out: Activity
RPMI-8226 = test: Growth inhibition of human RPMI8226 cells assessed as cell growth at 10 uM incubated for 48 hrs by sulforhodamine B assay relative to control; details: RPMI-8226, 48 h, read-out: Activity
A549 = test: Growth inhibition of human A549/ATCC cells assessed as cell growth at 10 uM incubated for 48 hrs by sulforhodamine B assay relative to control; details: A549, 48 h, read-out: Activity
HOP-62 = test: Growth inhibition of human HOP62 cells assessed as cell growth at 10 uM incubated for 48 hrs by sulforhodamine B assay relative to control; details: HOP-62, 48 h, read-out: Activity
NCI-H23 = test: Growth inhibition of human NCI-H23 cells assessed as cell growth at 10 uM incubated for 48 hrs by sulforhodamine B assay relative to control; details: NCI-H23, 48 h, read-out: Activity
NCI-H460 = test: Growth inhibition of human NCI-H460 cells assessed as cell growth at 10 uM incubated for 48 hrs by sulforhodamine B assay relative to control; details: NCI-H460, 48 h, read-out: Activity
NCI-H522 = test: Growth inhibition of human NCI-H522 cells assessed as cell growth at 10 uM incubated for 48 hrs by sulforhodamine B assay relative to control; details: NCI-H522, 48 h, read-out: Activity
COLO 205 = test: Growth inhibition of human COLO205 cells assessed as cell growth at 10 uM incubated for 48 hrs by sulforhodamine B assay relative to control; details: COLO 205, 48 h, read-out: Activity
HCC 2998 = test: Growth inhibition of human HCC2998 cells assessed as cell growth at 10 uM incubated for 48 hrs by sulforhodamine B assay relative to control; details: HCC 2998, 48 h, read-out: Activity
HCT-116 = test: Growth inhibition of human HCT116 cells assessed as cell growth at 10 uM incubated for 48 hrs by sulforhodamine B assay relative to control; details: HCT-116, 48 h, read-out: Activity
HCT-15 = test: Growth inhibition of human HCT15 cells assessed as cell growth at 10 uM incubated for 48 hrs by sulforhodamine B assay relative to control; details: HCT-15, 48 h, read-out: Activity
KM12 = test: Growth inhibition of human KM12 cells assessed as cell growth at 10 uM incubated for 48 hrs by sulforhodamine B assay relative to control; details: KM12, 48 h, read-out: Activity
SF-268 = test: Growth inhibition of human SF268 cells assessed as cell growth at 10 uM incubated for 48 hrs by sulforhodamine B assay relative to control; details: SF-268, 48 h, read-out: Activity
SF-295 = test: Growth inhibition of human SF295 cells assessed as cell growth at 10 uM incubated for 48 hrs by sulforhodamine B assay relative to control; details: SF-295, 48 h, read-out: Activity
SNB-75 = test: Growth inhibition of human SNB75 cells assessed as cell growth at 10 uM incubated for 48 hrs by sulforhodamine B assay relative to control; details: SNB-75, 48 h, read-out: Activity
U-251 = test: Growth inhibition of human U251 cells assessed as cell growth at 10 uM incubated for 48 hrs by sulforhodamine B assay relative to control; details: U-251, 48 h, read-out: Activity
Malme-3M = test: Growth inhibition of human MALME-3M cells assessed as cell growth at 10 uM incubated for 48 hrs by sulforhodamine B assay relative to control; details: read-out: Activity
MDA-MB-435 = test: Growth inhibition of human MDA-MB-435 cells assessed as cell growth at 10 uM incubated for 48 hrs by sulforhodamine B assay relative to control; details: MDA-MB-435, 48 h, read-out: Activity
SK-MEL-5 = test: Growth inhibition of human SK-MEL-5 cells assessed as cell growth at 10 uM incubated for 48 hrs by sulforhodamine B assay relative to control; details: SK-MEL-5, 48 h, read-out: Activity
UACC-257 = test: Growth inhibition of human UACC257 cells assessed as cell growth at 10 uM incubated for 48 hrs by sulforhodamine B assay relative to control; details: UACC-257, 48 h, read-out: Activity
UACC-62 = test: Growth inhibition of human UACC62 cells assessed as cell growth at 10 uM incubated for 48 hrs by sulforhodamine B assay relative to control; details: UACC-62, 48 h, read-out: Activity
OVCAR-3 = test: Growth inhibition of human OVCAR3 cells assessed as cell growth at 10 uM incubated for 48 hrs by sulforhodamine B assay relative to control; details: OVCAR-3, 48 h, read-out: Activity
OVCAR-4 = test: Growth inhibition of human OVCAR4 cells assessed as cell growth at 10 uM incubated for 48 hrs by sulforhodamine B assay relative to control; details: OVCAR-4, 48 h, read-out: Activity
NCI/ADR-RES = test: Growth inhibition of human NCI/ADR-RES cells assessed as cell growth at 10 uM incubated for 48 hrs by sulforhodamine B assay relative to control; details: read-out: Activity
A498 = test: Growth inhibition of human A498 cells assessed as cell growth at 10 uM incubated for 48 hrs by sulforhodamine B assay relative to control; details: A498, 48 h, read-out: Activity
CAKI-1 = test: Growth inhibition of human Caki1 cells assessed as cell growth at 10 uM incubated for 48 hrs by sulforhodamine B assay relative to control; details: CAKI-1, 48 h, read-out: Activity
RXF 393 = test: Growth inhibition of human RXF393 cells assessed as cell growth at 10 uM incubated for 48 hrs by sulforhodamine B assay relative to control; details: RXF 393, 48 h, read-out: Activity
MDA-MB-231 = test: Growth inhibition of human MDA-MB-231 cells assessed as cell growth at 10 uM incubated for 48 hrs by sulforhodamine B assay relative to control; details: MDA-MB-231, 48 h, read-out: Activity
BT-549 = test: Growth inhibition of human BT549 cells assessed as cell growth at 10 uM incubated for 48 hrs by sulforhodamine B assay relative to control; details: BT-549, 48 h, read-out: Activity
T47D = test: Growth inhibition of human T47D cells assessed as cell growth at 10 uM incubated for 48 hrs by sulforhodamine B assay relative to control; details: read-out: Activity
MDA-MB-468 = test: Growth inhibition of human MDA-MB-468 cells assessed as cell growth at 10 uM incubated for 48 hrs by sulforhodamine B assay relative to control; details: MDA-MB-468, 48 h, read-out: Activity

Structure (SMILES)	growth at 10 µM (HL-60(TB)) [%]	growth at 10 µM (MOLT-4) [%]	growth at 10 µM (RPMI-8226) [%]	growth at 10 µM (A549) [%]	growth at 10 µM (HOP-62) [%]	growth at 10 µM (NCI-H23) [%]	growth at 10 µM (NCI-H460) [%]	growth at 10 µM (NCI-H522) [%]	growth at 10 µM (COLO 205) [%]	growth at 10 µM (HCC 2998) [%]	growth at 10 µM (HCT-116) [%]	growth at 10 µM (HCT-15) [%]	growth at 10 µM (KM12) [%]	growth at 10 µM (SF-268) [%]	growth at 10 µM (SF-295) [%]	growth at 10 µM (SNB-75) [%]	growth at 10 µM (U-251) [%]	growth at 10 µM (Malme-3M) [%]	growth at 10 µM (MDA-MB-435) [%]	growth at 10 µM (SK-MEL-5) [%]	further results
COc1cc2cc(Oc3ccc(NC(=O)Nc4ccc(Cl)c(Cl)c4)cc3)c(C)nc2cc1OC	9.64	3.69	4.2	4.35	55.2	8.26	3.68	-13.8	4.03	37.6	10.5	18.9	13.9	43.7	0.69	22.4	-32.3	14.9	12.3	-35	growth at 10 µM (UACC-257): 1.38%; growth at 10 µM (UACC-62): 20.4%; growth at 10 µM (OVCAR-3): -10%; growth at 10 µM (OVCAR-4): 31.9%; growth at 10 µM (NCI/ADR-RES): 17.1%; growth at 10 µM (A498): 35.8%; growth at 10 µM (CAKI-1): 21.8%; growth at 10 µM (RXF 393): 22.3%; growth at 10 µM (MDA-MB-231): 47.8%; growth at 10 µM (BT-549): 28.1%; growth at 10 µM (T47D): 60.9%; growth at 10 µM (MDA-MB-468): -16.7%
COc1cc2cc(Oc3ccc(NC(=O)Nc4ccccc4)cc3)c(C)nc2cc1OC	70.5	37.9	38.8	58.4	103	87.2	69	67.2	85.7	105	42.6	64.1	70.3	88.1	54	75.8	48	86.4	89.4	60.8	growth at 10 µM (UACC-257): 92.4%; growth at 10 µM (UACC-62): 88.4%; growth at 10 µM (OVCAR-3): 67.1%; growth at 10 µM (OVCAR-4): 70.2%; growth at 10 µM (NCI/ADR-RES): 84.3%; growth at 10 µM (A498): 54%; growth at 10 µM (CAKI-1): 88.7%; growth at 10 µM (RXF 393): 76.7%; growth at 10 µM (MDA-MB-231): 80%; growth at 10 µM (BT-549): 104%; growth at 10 µM (T47D): 97.1%; growth at 10 µM (MDA-MB-468): 35.3%
COc1cc2cc(Oc3ccc(NC(=O)Nc4ccc(Cl)c(C(F)(F)F)c4)cc3)c(C)nc2cc1OC	-40.6	-27.9	-26.4	-17.2	-51	3.46	-19.8	-43.6	-49.5	-13.1	-87.3	1.27	-16.4	-10.2	-70.9	12.4	-80.4	-23	-25.7	-73.4	growth at 10 µM (UACC-257): -12.5%; growth at 10 µM (UACC-62): -51.5%; growth at 10 µM (OVCAR-3): -27.3%; growth at 10 µM (OVCAR-4): 17.1%; growth at 10 µM (NCI/ADR-RES): 2.01%; growth at 10 µM (A498): 10.4%; growth at 10 µM (CAKI-1): -8.92%; growth at 10 µM (RXF 393): -33.4%; growth at 10 µM (MDA-MB-231): -50.6%; growth at 10 µM (BT-549): -38.7%; growth at 10 µM (T47D): 21.4%; growth at 10 µM (MDA-MB-468): -42.7%
COc1cc2cc(Oc3ccc(NC(=O)Nc4cccc(C(F)(F)F)c4)cc3)c(C)nc2cc1OC	-24.8	0.81	-5.94	3.09	25	6.78	2.68	-17.4	-20.2	25.4	6.71	15.2	-10.2	29.2	-15.1	13.1	-85.7	7.22	7.23	-86.1	growth at 10 µM (UACC-257): -14.5%; growth at 10 µM (UACC-62): 14.5%; growth at 10 µM (OVCAR-3): -0.54%; growth at 10 µM (OVCAR-4): 31.7%; growth at 10 µM (NCI/ADR-RES): 6.98%; growth at 10 µM (A498): 21.7%; growth at 10 µM (CAKI-1): 9.13%; growth at 10 µM (RXF 393): -13.1%; growth at 10 µM (MDA-MB-231): -8.32%; growth at 10 µM (BT-549): -8.13%; growth at 10 µM (T47D): 27.8%; growth at 10 µM (MDA-MB-468): -32.5%
